Legend:
[1] = target: BACE 1 (beta secretase enzyme) (Homo sapiens (Human), UniProt P56817); test: In vitro enzymatic BACE FRET assay; assay type: biochemical; settings: average IC50
Procedure: In Vitro Enzymatic BACE FRET (Fluorescence Resonance Energy Transfer) Assay
The assay buffer used in this screen is 0.05 M acetate, pH 4.2, 10% DMSO final, 100 uM genapol (which is a nonionic detergent, below its Critical Micelle Concentration). […] This assay is effectively started by the addition of FRET substrate (50 nM) and the combination is incubated for one hour. The FRET assay is terminated with by addition of Tris buffer, which raises the pH to neutrality, and the fluorescence is determined. The FRET substrate is a peptide with commercially available fluorophore and quencher, on opposite sides of the BACE cleavage site. Proteolytic cleavage of the FRET substrate releases quenching of fluorescence (excitation […] and […]).

[2] = tested on: Aβ40 in conditioned medium of cells stably expressing Amyloid Precursor Protein (APP); test: In vitro BACE cell-based assay (HEK cell assay, Aβ40 sandwich ELISA); settings: average IC50, Aβ40, 24 h incubation
Procedure: In Vitro BACE Cell-Based Assay
The cell-based assay measures inhibition or reduction of Aβ40 in conditioned medium of test compound treated cells expressing amyloid precursor protein.
Cells stably expressing Amyloid Precursor Protein (APP) were plated at a density of 40K cells/well in 96 well plates (Costar). The cells were cultivated for 24 hours at 37° C. and 5% CO2 in DMEM supplemented with 10% FBS. The test compounds were then added to cells in 10-point dose response concentrations with the starting concentration being either 100 μM or 10 μM. The compounds were diluted from stock solutions in DMSO and the final DMSO concentration of the test compounds on cells was 0.1%. After 24 h of incubation with the test compounds the supernatant conditioned media was collected and the Aβ 40 levels were determined using a sandwich ELISA. The IC50 of the compound was calculated from the percent of control or percent inhibition of Aβ 40 as a function of the concentration of the test compound.
The sandwich ELISA to detect Aβ 40 was performed in 96 well microtiter plates, which were pre-treated with goat anti-rabbit IgG (Pierce). The capture and detecting antibody pair that were used to detect Aβ 40 from cell supernatants were affinity purified pAb40 (Biosource) and biotinylated 6E10 (Signet Labs Inc.), respectively. The optimal concentration for the pAb40 antibody was 3 μg/ml in Superblock/TBS (Pierce) that was supplemented with 0.05% Tween 20 (Sigma).
Cellular supernatants were incubated with the capture antibody for 3 h at 4° C., followed by 3 wash steps in TBS-tween (0.05%). The detecting antibody incubation was for 2 h at 4° C., again followed by the wash steps as described previously. The final readout of the ELISA is Time-Resolved Fluorescence (counts per minute) using Delfia reagents Streptavidin-Europium and Enhancement solutions (Perkin Elmer) and the Victor 2 multilabel counter (Perkin Elmer).

Cathepsin D = Cathepsin D (Homo sapiens (Human), UniProt P07339); test: In vitro enzymatic Cat D (Cathepsin D) FRET assay; assay type: biochemical; settings: average IC50
Chain of Cathepsin D (P07339 65-412, species assumed): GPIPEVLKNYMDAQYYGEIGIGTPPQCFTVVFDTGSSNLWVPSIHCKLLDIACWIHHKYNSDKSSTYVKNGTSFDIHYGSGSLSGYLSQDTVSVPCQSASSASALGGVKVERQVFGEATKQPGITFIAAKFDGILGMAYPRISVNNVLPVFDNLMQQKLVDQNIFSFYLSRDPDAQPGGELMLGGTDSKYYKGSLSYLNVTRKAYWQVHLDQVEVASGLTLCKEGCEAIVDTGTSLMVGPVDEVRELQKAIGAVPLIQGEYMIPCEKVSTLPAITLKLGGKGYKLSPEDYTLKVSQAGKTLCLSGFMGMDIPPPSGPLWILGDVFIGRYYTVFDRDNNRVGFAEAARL
Procedure: In Vitro Enzymatic Cat D (Cathepsin D) FRET (Fluorescence Resonance Energy Transfer) Assay
Recombinant CathepsinD was expressed in CHO cells. The assay buffer for CathepsinD is 0.05 M citrate pH 3.5, 10% DMSO final, 5 mM CHAPS. […] The assays are effectively started by the addition of different FRET substrates (20 nM for CathepsinD) and the combination is incubated for one hour. The FRET assay is terminated with by addition of Tris buffer, which raises the pH to neutrality, and the fluorescence is determined. The FRET substrate is a peptide with commercially available fluorophore and quencher, on opposite sides of the BACE cleavage site. […] Proteolytic cleavage of the FRET substrate releases quenching of fluorescence (CathepsinD excitation 500 nm and emission 580 nm).

Chain of BACE 1 (beta secretase enzyme) (P56817 46-501): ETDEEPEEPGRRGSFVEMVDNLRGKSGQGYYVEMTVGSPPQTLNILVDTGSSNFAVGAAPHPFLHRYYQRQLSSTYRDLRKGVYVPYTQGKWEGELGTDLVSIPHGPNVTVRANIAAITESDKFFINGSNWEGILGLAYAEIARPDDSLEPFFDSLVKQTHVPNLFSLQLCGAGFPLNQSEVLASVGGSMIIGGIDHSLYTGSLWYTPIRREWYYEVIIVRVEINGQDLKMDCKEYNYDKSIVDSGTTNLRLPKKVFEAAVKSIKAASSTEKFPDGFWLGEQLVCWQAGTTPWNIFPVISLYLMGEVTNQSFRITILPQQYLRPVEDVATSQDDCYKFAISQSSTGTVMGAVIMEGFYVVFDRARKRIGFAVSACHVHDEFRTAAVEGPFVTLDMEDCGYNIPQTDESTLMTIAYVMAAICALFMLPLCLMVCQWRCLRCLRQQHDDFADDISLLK

| Compound | IC50 [1] [nM] | IC50 ([2]; Homo sapiens, HEK293) [nM] | IC50 (Cathepsin D) [nM] | IC50 [2] [nM] |
| --- | --- | --- | --- | --- |
| COc1nc(C2=CCOCC2)cc2c1Oc1ccc(NC(=O)c3ccc(Cl)cn3)cc1[C@@]21CCOC(N)=N1 [Example 62, N-((5S)-2′-amino-3-(3,6-dihydro-2H-pyran-4-yl)-1-methoxy-5′,6′-dihydrospiro[chromeno[2,3-c]pyridine-5,4′-[1,3]oxazin]-7-yl)-5-chloro-2-pyridinecarboxamide] | 7 | 3.6 | 400000 | – |
| COc1cc(F)c2c(c1)[C@]1(CCOC(N)=N1)c1cc(Nc3ncccc3OCc3ccccc3)ccc1O2 [Example 57, (4S)-N~2~′-(3-(benzyloxy)-2-pyridinyl)-5′-fluoro-7′-methoxy-5,6-dihydrospiro[1,3-oxazine-4,9′-xanthene]-2,2′-diamine] | 7290 | – | 400000 | 3510 |
| COc1ccc(C(=O)Nc2ccc3c(c2)[C@@]2(CCSC(N)=N2)c2cc(-c4cncc(F)c4)nc(F)c2O3)nc1 [Example 113, N-((5S)-2′-amino-1-fluoro-3-(5-fluoro-3-pyridinyl)-5′,6′-dihydrospiro[chromeno[2,3-c]pyridine-5,4′-[1,3]thiazin]-7-yl)-5-methoxy-2-pyridinecarboxamide] | 1.1 | 1.8 | 120000 | – |
| COc1cnc(C(=O)Nc2ccc3c(c2)[C@@]2(CCSC(N)=N2)c2cc(C4=CCOCC4)cc(F)c2O3)cn1 [Example 60, N-((4S)-2-amino-7′-(3,6-dihydro-2H-pyran-4-yl)-5′-fluoro-5,6-dihydrospiro[1,3-thiazine-4,9′-xanthen]-2′-yl)-5-methoxy-2-pyrazinecarboxamide] | 6.2 | 4.3 | 174000 | – |
| COc1cc(F)c2c(c1)[C@]1(CCOC(N)=N1)c1cc(NC(=O)c3ccc(C#N)cn3)ccc1O2 [Example 74, N-((4S)-2-amino-5′-fluoro-7′-methoxy-5,6-dihydrospiro[1,3-oxazine-4,9′-xanthen]-2′-yl)-5-cyano-2-pyridinecarboxamide] | 10.8 | 4.6 | 147000 | – |
| COc1ccc(C(=O)Nc2ccc3c(c2)[C@@]2(CCSC(N)=N2)c2cc(O)cc(F)c2O3)nc1 [Example 105, N-((4S)-2-amino-5′-fluoro-7′-hydroxy-5,6-dihydrospiro[1,3-thiazine-4,9′-xanthen]-2′-yl)-5-methoxy-2-pyridinecarboxamide] | 29.4 | 82.3 | 225000 | – |
| CCOc1cccnc1Nc1ccc2c(c1)[C@@]1(CCSC(N)=N1)c1cc(OC)cc(F)c1O2 [Example 33, (4S)-N~2~′-(3-ethoxy-2-pyridinyl)-5′-fluoro-7′-methoxy-5,6-dihydrospiro[1,3-thiazine-4,9′-xanthene]-2,2′-diamine] | 48.6 | – | 262000 | 65.9 |
| COc1cnc(C(=O)Nc2ccc3c(c2)[C@@]2(CCSC(N)=N2)c2cc(N4CCOCC4)cc(F)c2O3)cn1 [Example 110, N-((4S)-2-amino-5′-fluoro-7′-(4-morpholinyl)-5,6-dihydrospiro[1,3-thiazine-4,9′-xanthen]-2′-yl)-5-methoxy-2-pyrazinecarboxamide] | 15.3 | 7.7 | 229000 | – |
| COc1cc(F)c2c(c1)[C@]1(CCOC(N)=N1)c1cc(NC(=O)c3ccc(Cl)cc3F)ccc1O2 [Example 76, N-((4S)-2-amino-5′-fluoro-7′-methoxy-5,6-dihydrospiro[1,3-oxazine-4,9′-xanthen]-2′-yl)-4-chloro-2-fluorobenzamide] | 181 | 206 | 400000 | – |
| NC1=N[C@@]2(CCO1)c1cc(NC(=O)c3ccc(Cl)cn3)ccc1Oc1cnc(-c3ccnc(F)c3)cc12 [Example 94, N-((5S)-2′-amino-3-(2-fluoro-4-pyridinyl)-5′,6′-dihydrospiro[chromeno[2,3-c]pyridine-5,4′-[1,3]oxazin]-7-yl)-5-chloro-2-pyridinecarboxamide] | 1.6 | 0.7 | 400000 | – |
| N#Cc1ccc(C(=O)Nc2ccc3c(c2)[C@@]2(CCOC(N)=N2)c2cc(-c4ccnc(F)c4)nc(F)c2O3)nc1 [Example 100, N-((5S)-2′-amino-1-fluoro-3-(2-fluoro-4-pyridinyl)-5′,6′-dihydrospiro[chromeno[2,3-c]pyridine-5,4′-[1,3]oxazin]-7-yl)-5-cyano-2-pyridinecarboxamide] | 0.6 | 0.4 | 518000 | – |
| COc1cnc(C(=O)Nc2ccc3c(c2)[C@@]2(CCSC(N)=N2)c2cc(-c4ccnc(F)c4)nc(F)c2O3)cn1 [Example 114, N-((5S)-2′-amino-1-fluoro-3-(2-fluoro-4-pyridinyl)-5′,6′-dihydrospiro[chromeno[2,3-c]pyridine-5,4′-[1,3]thiazin]-7-yl)-5-methoxy-2-pyrazinecarboxamide] | 3.1 | 3.8 | 400000 | – |
| CCOc1cccnc1Nc1ccc2c(c1)[C@@]1(CCOC(N)=N1)c1cc(OC)cc(F)c1O2 [Example 31, (4S)-N~2~′-(3-ethoxy-2-pyridinyl)-5′-fluoro-7′-methoxy-5,6-dihydrospiro[1,3-oxazine-4,9′-xanthene]-2,2′-diamine] | 69.6 | – | 400000 | 64.2 |

Next, values leading:

| IC50 [1] [nM] | IC50 ([2]; Homo sapiens, HEK293) [nM] | IC50 (Cathepsin D) [nM] | IC50 [2] [nM] | Compound |
| --- | --- | --- | --- | --- |
| 113 | 1660 | > 4940 | – | NC1=N[C@@]2(CCO1)c1cc(NC(=O)c3cnc(O)cn3)ccc1Oc1ncc(Br)cc12 [Example 43, N-((5S)-2′-amino-3-bromo-5′,6′-dihydrospiro[chromeno[2,3-b]pyridine-5,4′-[1,3]oxazin]-7-yl)-5-hydroxy-2-pyrazinecarboxamide] |
| 5.1 | 3.3 | > 1650 | – | NC1=N[C@@]2(CCO1)c1cc(NC(=O)c3ccc(Cl)cn3)ccc1Oc1ncc(C3=CCCOC3)cc12 [Example 35, N-((5S)-2′-amino-3-(5,6-dihydro-2H-pyran-3-yl)-5′,6′-dihydrospiro[chromeno[2,3-b]pyridine-5,4′-[1,3]oxazin]-7-yl)-5-chloro-2-pyridinecarboxamide] |
| 12 | 1.2 | 452000 | – | COc1cnc(C(=O)Nc2ccc3c(c2)[C@@]2(CCOC(N)=N2)c2cc(C#CC(C)(C)C)ncc2O3)cn1 [Example 86, N-((5S)-2′-amino-3-(3,3-dimethyl-1-butyn-1-yl)-5′,6′-dihydrospiro[chromeno[2,3-c]pyridine-5,4′-[1,3]oxazin]-7-yl)-5-methoxy-2-pyrazinecarboxamide] |
| 38.6 | 9.9 | 400000 | – | NC1=N[C@@]2(CCO1)c1cc(NC(=O)c3ccc(Cl)cn3)ccc1Oc1cnc(Cl)cc12 [Example 79, N-((5S)-2′-amino-3-chloro-5′,6′-dihydrospiro[chromeno[2,3-c]pyridine-5,4′-[1,3]oxazin]-7-yl)-5-chloro-2-pyridinecarboxamide] |
| 47.6 | 11 | > 1650 | – | COc1cnc(C(=O)Nc2ccc3c(c2)[C@@]2(CCOC(N)=N2)c2cc(Br)cnc2O3)cn1 [Example 44, N-((5S)-2′-amino-3-bromo-5′,6′-dihydrospiro[chromeno[2,3-b]pyridine-5,4′-[1,3]oxazin]-7-yl)-5-methoxy-2-pyrazinecarboxamide] |
| 7 | 23 | > 400000 | – | N#Cc1ccc(C(=O)Nc2ccc3c(c2)[C@@]2(CCOC(N)=N2)c2cc(Cl)nc(F)c2O3)nc1 [Example 46, N-((5S)-2′-amino-3-chloro-1-fluoro-5′,6′-dihydrospiro[chromeno[2,3-c]pyridine-5,4′-[1,3]oxazin]-7-yl)-5-cyano-2-pyridinecarboxamide] |

— patent US9296759B2, “Amino-oxazine and amino-dihydrothiazine compounds as beta-secretase modulators and methods of use” (AMGEN INC., priority 2011, dated 2016)
